# Source: patent US5770565A, “Peptides for reducing or inhibiting bone resorption” (priority 1994, dated 1998)
# Where a SMILES comes first, the peptide text is derived from it. Bridges are numbered along the chain shown (N, C = ends). [ ]: non-standard residue; d: D form. Tic = O=C(O)[C@@H]1Cc2ccccc2CN1; Pen = CC(C)(S)[C@H](N)C(=O)O; Mpa = O=C(O)CCS
# Experiments:
# [1] = test system: αV β3 integrin, osteoclasts; assay: series of assays of Example II for potency and selectivity (summary, FIG. 2)
# Description: Peptides of the RGDNTic (SEQ ID NO: 56) pharmacophore group are characterized, in general, as having increased potency, whereas the peptides of the pharmacophore RGDDV (SEQ ID NO: 1) group generally have higher receptor selectivity. […] As used herein, the term "potency" or "potent" means that a peptide of the invention is active at a relatively low concentration in the assays described in Examples II and III. A potent peptide of the invention can be identified, for example, using the assays described in Examples II and III.
# Selectivity can be due, for example, to the ability of a peptide of the invention to bind to αV β3 with greater affinity than it binds to other integrins. Thus, in addition to having selectivity, for example, for osteoclast binding to a matrix, a peptide of the invention also can display receptor selectivity and, therefore, more specifically alter receptor-mediated binding to a matrix. As used herein, the term "receptor selectivity" means that a peptide of the invention can bind to one receptor with greater affinity than it can bind to another receptor.
# Swiss-Webster mice = assay: PTH-induced hypercalcemia assay; assay type: in vivo; conditions: peptide infused 4 hr at various doses, 0.2 mg PTH/kg i.v., FIG. 9
# Description: Parathyroid hormone (PTH) activates osteoclasts, which are involved in bone resorption. Associated with the increased osteoclast activity is an increase in serum calcium. The PTH-induced hypercalcemia assay measures the level of serum calcium, which is an indication of bone resorption in a subject (Fischer et al., Endocrinology 132:1411-1413 (1993), which is incorporated herein by reference).
# Swiss-Webster mice, which had been parathyroidectomized two weeks prior to beginning the assay, were obtained from Taconic Lab Animals and Services (Germantown N.Y.). Femoral vein catheters (PE-50 fused with PE10 polyethylene tubing; Becton Dickinson; Parsippany, N.J.) were installed in the mice, flushed and locked with heparinized saline (1:10), sutured to adjacent muscle and internalized within the inguinal space of the incision before closing the incision with wound clips. […]
# The experiment was initiated by feeding the mice a calcium-deficient diet overnight, then injecting the mice the following morning with a bolus of 0.2 mg PTH/kg (hPTH 1-34; Bachem; Torrance Calif.), intravenously. […] Various doses of a peptide or vehicle were infused into an animal for 4 hr, then ionized serum calcium again was measured. […] Serum calcium measurements were expressed as the difference between the value 30 min before the PTH pulse and 4 hr after peptide infusion was started. […]
# α5 β1 (FnR) = biological target: T1, α5 β1 (FnR) (Homo sapiens, UniProt P05556+P08648); assay: α5 β1 ELISA (competitive receptor binding); conditions: receptor ELISAs compared
# T1 construct: Fibronectin receptor (FnR) was purified from 100 mM octyl-glucopyranoside-extracted human placenta; from tissue; host or cells: human placenta
# Method: (§1) Peptide binding to purified human αV β5 and αV β3, which are VnR's, and to α5 β1, which is a FnR, was determined using competitive ELISA assays as described below.
# Peptide binding to purified human α5 β1 (FnR) also was determined using a competitive ELISA. In these assays, Fn was immobilized to the wells and the binding of solubilized FnR in the presence of various concentrations of a peptide analogue was determined using a mouse monoclonal antibody to human β1 (clone P4C10; Gibco) and specific binding was visualized using a second antibody.
# Microtiter wells were coated at RT by adding 100 μl of 2 μg/ml human Fn in TBS and incubating the plates overnight at 4° C. Following incubation, the plates were washed 3× with TBS/"TWEEN-20". RGD peptides were diluted in TBS containing 20 mM OG and 2 mM MnCl2 and 50 μl was added to wells at 10-fold serial dilutions. FnR was diluted in the same buffer and 50 μl was added to each well.
# The plates were incubated for 3 hr at RT and washed with 300 μl TBS/"TWEEN-20". Bound receptor was incubated with 100 μl of the monoclonal anti-β1 antibody for 2 hr, then washed 3× with TBS/"TWEEN-20". […] The amount of bound second antibody was determined as described above.
# The IC50 values for various RGD peptides were calculated by determining the concentration of a peptide that inhibited binding of Vn to αV β5 or αV β3 or of Fn to α5 β1 by 50%. […]
# αV β3 receptor = biological target: T2, αV β3 receptor (Homo sapiens, UniProt P05106+P06756); assay: αV β3 ELISA (competitive receptor binding); conditions: receptor ELISAs compared
# T2 construct: The αV β3 receptor was purified from octylglucopyranoside-extracted human placenta; from tissue; host or cells: human placenta
# Method: as §1
# Peptide binding to purified αV β3 receptor was determined by using a competitive ELISA, in which αV β3 receptor was immobilized and the binding of solubilized VN, in the presence of various concentrations of peptide analogue, was detected using a monoclonal mouse IgG anti-VN antibody and a labelled anti-mouse IgG conjugate. A monoclonal anti-VN antibody can be obtained using routine methods (see, for example, Harlow and Lane, Antibodies: A laboratory manual (Cold Spring Harbor Laboratory Press 1988), which is incorporated herein by reference).
# 96 well microtiter plates were coated overnight at RT with 100 μl/well of αV β3 receptor (0.5 μg/ml in 1×TBS, 4 mM octylglucoside, 1 mM CaCl2). The wells were blocked with 200 μl/well of 1% BSA in 1×TBS, 1 mM CaCl2 for at least 30 min. The plates were washed 2× with 1×TBS, 1 mM CaCl2. 50 μl peptide in 1×TBS, 1 mM CaCl2, 0.05% "TWEEN 20" polyoxyethylenesorbitan monolaurate was added in 10-fold serial dilutions. 50 μl of Vn in the same buffer then was added to each well.
# The plates were incubated for 3 hr at RT, then washed 3× with 1×TBS, 0.05% "TWEEN 20" polyoxyethylenesorbitan monolaurate. […] The plates were read at 490 nm and the data analyzed by four parameter fit. […]
# [2] = half-life of peptide in serum; conditions: in vivo
# Description: Increased stability of a disulfide bonded peptide of the invention also can be conferred by incorporating a hydrophobic amino acid residue such as phenylalanine at position X1 or X8 or both X1 and X8 in an RGDNTic (SEQ ID NO: 56) or RGDDV (SEQ ID NO: 1) pharmacophore as disclosed herein. The presence of such a residue can stabilize the disulfide bond against enzymatic degradation (see Bauer et al., Life Sciences 31:1133-1140 (1982)). […] In addition, the half-life of a peptide in a subject can be determined, for example, by high performance liquid chromatography (HPLC) of serum samples collected from the subject at various times following administration of the peptide. One skilled in the art would know how to select appropriate elution buffers for HPLC based on the physico-chemical properties of a particular peptide.
# osteoclasts = conditions: cited from earlier work
compound,measurement,setting,value
CC(C)[C@@H]1NC(=O)[C@H](CC(=O)O)NC(=O)[C@H](CC(=O)O)NC(=O)CNC(=O)[C@H](CCCNC(=N)N)NC(=O)[C@H](C)NC(=O)[C@H](CCCNC(=N)N)NC(=O)[C@@H](NC(=O)CN)C(C)(C)SSC[C@@H](C(=O)N[C@@H](C)C(=O)O)NC1=O [compound 138] (H-G[Pen]RARGDDVCA-OH; disulfide 2-10),potency and selectivity together (summary classification),[1],both potent and selective
same,receptor selectivity (summary classification),[1],particularly receptor selective
C[C@@H]1NC(=O)[C@H](C)NC(=O)[C@@H](NC(=O)CN)C(C)(C)SSC[C@@H](C(N)=O)NC(=O)[C@H]([C@@H](C)O)NC(=O)[C@H](CC(=O)O)NC(=O)[C@H](CC(=O)O)NC(=O)CNC(=O)[C@H](CCCNC(=N)N)NC1=O [compound 186] (H-G[Pen]AARGDDTC-NH2; disulfide 2-10),receptor selectivity (summary classification),[1],particularly receptor selective
CC(C)[C@@H]1NC(=O)[C@H](CC(=O)O)NC(=O)[C@H](CC(=O)O)NC(=O)CNC(=O)[C@H](CCCNC(=N)N)NC(=O)CCSSC[C@@H](C(N)=O)NC1=O [compound 191] ([Mpa]RGDDVC-NH2; disulfide 1-7),effect on PTH-induced rise in serum ionized calcium,Swiss-Webster mice,decreased the PTH-induced rise in serum ionized calcium in a dose responsive manner
CC(=O)N[C@H]1CSSC(C)(C)[C@@H](C(N)=O)NC(=O)[C@@H]2CCCN2C(=O)[C@H](CC(N)=O)NC(=O)[C@H](CC(=O)O)NC(=O)CNC(=O)[C@H](CCCNC(=N)N)NC1=O [compound 228] (Ac-CRGDNP[Pen]-NH2; disulfide 1-7),receptor selectivity (summary classification),[1],particularly receptor selective
C[C@H](NC(=O)[C@@H]1CSSC(C)(C)[C@H](NC(=O)CN)C(=O)N[C@@H](C)C(=O)N[C@@H](C)C(=O)N[C@@H](CCCNC(=N)N)C(=O)NCC(=O)N[C@@H](CC(=O)O)C(=O)N[C@@H](CC(N)=O)C(=O)N2CCC[C@H]2C(=O)N1)C(=O)O [compound 310] (H-G[Pen]AARGDNPCA-OH; disulfide 2-10),selectivity toward α5 β1 versus αV β5,α5 β1 (FnR),more selective toward α5 β1 than toward αV β5
"CC(=O)N[C@H]1CSSC[C@@H](C(N)=O)NC(=O)[C@@H]2Cc3ccccc3CN2C(=O)[C@H](CO)NC(=O)[C@H](CC(=O)O)NC(=O)CNC(=O)[C@H](CCCNC(=N)N)NC1=O [compound 812, Ac-CRGDS(Tic)Cs-NH2] (Ac-CRGDS[Tic]C-NH2; disulfide 1-7)",potency (summary classification),[1],particularly potent
same,activity of peptides with minimally essential elements,[1]; FIG. 2,demonstrate activity
CC(=O)N[C@@H]1C(=O)N[C@@H](Cc2ccccc2)C(=O)N[C@@H](C)C(=O)N[C@@H](CCCNC(=N)N)C(=O)NCC(=O)N[C@@H](CC(=O)O)C(=O)N[C@@H](CC(N)=O)C(=O)N2CCC[C@H]2C(=O)N[C@H](C(N)=O)CSSC1(C)C [peptide 214] (Ac-[Pen]FARGDNPC-NH2; disulfide 1-9),"relative affinity for αV β3, α5 β1 and αV β5",αV β3 receptor,higher affinity for αV β3 and α5 β1 than for αV β5
same,potency (summary classification),[1],particularly potent
CC(=O)N[C@@H](Cc1ccccc1)C(=O)N[C@H]1CSSC[C@@H](C(N)=O)NC(=O)[C@H](Cc2ccccc2)NC(=O)[C@H]([C@@H](C)O)NC(=O)[C@H](CC(=O)O)NC(=O)CNC(=O)[C@H](CCCNC(=N)N)NC1=O [peptide 220] (Ac-FCRGDTFC-NH2; disulfide 2-8),half-life in serum,[2],relatively long
Echistatin,binding to osteoclasts,osteoclasts,nonselective
